≈ marks a conversion by molar mass, not a printed value. Read-outs that look alike come from different tables or passages of the source.
How the values were obtained:
[1] = tested on: B. thetaiotaomicron ATCC 29741; assay: Antibacterial MIC, CLSI broth microdilution; type: cell-based; conditions: for MIC: Bacteroides thetaiotaomicron
Experimental: (§1) Grain (−) and gram (+) antibacterial minimum inhibitory concentration (MIC) values (μg/mL) were obtained using CLSI methodology for anti-bacterial susceptibility testing. On each day of testing, serial dilutions of compounds were prepared in microdilution plates using a Tecan robotic workstation. Mueller Hinton broth cultures of representative sensitive and resistant gram negative strains were grown or adjusted to match the turbidity of a 0.5 McFarland standard. 1:200 dilutions were made in an appropriate broth (cation supplemented Mueller Hinton broth) to allow a final inoculum of 1×10^5 cfu. Plates were incubated at 35° C. in ambient air for 18-24 hours, were read spectrophotometrically and checked manually for evidence of bacterial growth. The lowest dilution of compound that inhibited growth was recorded as the MIC. Lysed horse blood was used to supplement broth for testing S. pneumoniae. The MIC's for each compound were assessed against S. aureus, S. pneumoniae, P. acnes, E. coli and B. theta.

E. coli ATCC 25922 = assay: Antibacterial MIC, CLSI broth microdilution; type: cell-based; conditions: 35° C., 18-24 hours; for MIC: Escherichia coli, ATCC25922
Experimental: as §1

E. coli MG 1655 = assay: Antibacterial MIC, CLSI broth microdilution; type: cell-based; conditions: 35° C., 18-24 hours; for MIC: Escherichia coli, MG1655
Experimental: as §1

P. acnes ATCC 11827 = assay: Antibacterial MIC, CLSI broth microdilution; type: cell-based; conditions: 35° C., 18-24 hours; for MIC: Cutibacterium acnes, ATCC11827
Experimental: as §1

P. acnes ATCC 6919 = assay: Antibacterial MIC, CLSI broth microdilution; type: cell-based; conditions: 35° C., 18-24 hours; for MIC: Cutibacterium acnes, ATCC6919
Experimental: as §1

S. aureus RN450 [2] = assay: Antibacterial MIC, CLSI broth microdilution; type: cell-based; conditions: 35° C., 18-24 hours; for MIC: Staphylococcus aureus, RN450
Experimental: as §1

[3] = tested on: S. pneumoniae 157E - Strep; assay: Antibacterial MIC, CLSI broth microdilution; type: cell-based; conditions: 35° C., 18-24 hours, lysed horse blood; for MIC: Streptococcus pneumoniae, 157ESTREP
Experimental: as §1

in vitro = type: cell-based
Experimental: Mammalian cell cytotoxicity was assessed to evaluate potential in vivo risks associated with the tetracycline compounds of the invention. A soluble, non-toxic redox dye (“Resazurin”; Alamar Blue) was used to assess a tetracycline compound's effect on cellular metabolism. At the onset of the experiment, cultures of mammalian COS-1 or CHO cells were washed, trypsinized, and harvested. […] On the next day, serial dilutions of test drug were prepared under sterile conditions and transferred to cell plates. Plates were then incubated under the above conditions for 24 hours. Following the incubation period, the media/drug was aspirated, and 50 μL of resazurin was added. Plates were then incubated under the above conditions for 2 hours and then in the dark at room temperature for an additional 30 minutes. Fluorescence measurements were taken (excitation 535 nm, emission 590 nm) and toxic effects in treated versus control cells were compared based on the degree of fluorescence in each well.

S. aureus RN450 [4] = assay: In vivo anti-bacterial activity, S. aureus model; conditions: mice, 24 hours; for responders at 5 mg/kg / ED50: Staphylococcus aureus, sc; for responders at 5 mg/kg: lethal IP S. aureus RN450, single subcutaneous dose 5 mg/kg, read-out: Percent Survival; for ED50: read-out: PD50 (dose that protects 50% of the animals)
Experimental: Groups of five mice were injected intraperitoneally with a lethal dose of S. aureus RN450 in a medium of mucin. Mice were evaluated at 24 hours to determine survival. […] In some instances, a dose response study was performed with the compound such that a PD50 (a dose of compound that protects 50% of the animals) could be calculated.

[5] = ATCC29741, 35° C., 18-24 hours, read-out: MIC B. thetaiotaomicron ATCC 29741
[6] = lethal IP S. aureus RN450, subcutaneous

Compound	MIC [1, 5] [µg/mL]	MIC (E. coli ATCC 25922) [µg/mL]	MIC (E. coli MG 1655) [µg/mL]	MIC (P. acnes ATCC 11827) [µg/mL]	MIC (P. acnes ATCC 6919) [µg/mL]	MIC (S. aureus RN450 [2]) [µg/mL]	MIC [3] [µg/mL]	IC50 at 24 h (in vitro; African green monkey) [µg/mL]	IC50 at 24 h (in vitro; Chinese hamster) [µg/mL]	responders at 5 mg/kg (S. aureus RN450 [4]) [%]	ED50 (S. aureus RN450 [4]; [6]) [mg/kg]	MIC ([1]; ATCC29741, read-out: MIC B. thetaiotaomicron ATCC 29741) [µg/mL]	MIC B. thetaiotaomicron ATCC 29741 ([1]; 35° C., 18-24 hours)	MIC E. coli ATCC 25922 (E. coli ATCC 25922)	MIC E. coli MG 1655 (E. coli MG 1655)	MIC P. acnes ATCC 11827 (P. acnes ATCC 11827)	MIC P. acnes ATCC 6919 (P. acnes ATCC 6919)	MIC S. aureus RN450 (S. aureus RN450 [2])	MIC S. pneumoniae 157E - Strep [3]	PD50 (dose that protects 50% of the animals) (S. aureus RN450 [4]; [6]) [mg/kg]
CCONCc1ccc(O)c2c1C[C@H]1C[C@H]3[C@H](N(C)C)C(O)=C(C(N)=O)C(=O)[C@@]3(O)C(O)=C1C2=O [AA, (4S,4aS,5aR,12aS)-4-Dimethylamino-7-(ethoxyamino-methyl)-3,10,12,12a-tetrahydroxy-1,11-dioxo-1,4,4a,5,5a,6,11,12a-octahydro-naphthacene-2-carboxylic acid amide]	4 to 8 (≈ 8.2 to 16.4 µM)	4 to 8 (≈ 8.2 to 16.4 µM)	4 to 8 (≈ 8.2 to 16.4 µM)	< 4	< 4	< 4	< 4	> 75	> 75	100	–	–	–	–	–	–	–	–	–	–
CNc1c(-c2ccc(O)c3c2C[C@H]2C[C@H]4[C@H](N(C)C)C(O)=C(C(N)=O)C(=O)[C@@]4(O)C(O)=C2C3=O)c(=O)c1=O [AD, (4S,4aS,5aR,12aS)-4-Dimethylamino-3,10,12,12a-tetrahydroxy-7-(2-methylamino-3,4-dioxo-cyclobut-1-enyl)-1,11-dioxo-1,4,4a,5,5a,6,11,12a-octahydro-naphthacene-2-carboxylic acid amide]	> 8	4 to 8 (≈ 7.64 to 15.3 µM)	4 to 8 (≈ 7.64 to 15.3 µM)	< 4	< 4	< 4	< 4	< 35	< 35	–	4.54	–	–	–	–	–	–	–	–	–
C=CCONCc1ccc(O)c2c1C[C@H]1C[C@H]3[C@H](N(C)C)C(O)=C(C(N)=O)C(=O)[C@@]3(O)C(O)=C1C2=O [AF]	< 4	4 to 8 (≈ 8.01 to 16 µM)	4 to 8 (≈ 8.01 to 16 µM)	< 4	< 4	< 4	< 4	35 to 75 (≈ 70.1 to 150 µM)	35 to 75 (≈ 70.1 to 150 µM)	–	0.23	–	–	–	–	–	–	–	–	–
CN(C)c1cccc2c1C[C@H]1C[C@H]3[C@H](N(C)C)C(O)=C(C(N)=O)C(=O)[C@@]3(O)C(O)=C1C2=O [C]	> 8	> 8	> 8	< 4	< 4	< 4	< 4	> 75	> 75	100	–	–	–	–	–	–	–	–	–	–
CC(C)ONCc1ccc(O)c2c1C[C@H]1C[C@H]3[C@H](N(C)C)C(O)=C(C(N)=O)C(=O)[C@@]3(O)C(O)=C1C2=O [DV, (4S,4aS,5aR,12aS-4-Dimethylamino-3,10,12,12a-tetrahydroxy-7-isopropoxyamino-methyl)-1,11-dioxo-1,4,4a,5,5a,6,11,12a-octahydro-naphthacene-2-carboxylic acid amide]	4 to 8 (≈ 7.98 to 16 µM)	4 to 8 (≈ 7.98 to 16 µM)	> 8	< 4	< 4	< 4	< 4	< 35	< 35	–	1.1	–	–	–	–	–	–	–	–	–
CN(C)[C@@H]1C(O)=C(C(N)=O)C(=O)[C@@]2(O)C(O)=C3C(=O)c4c(O)ccc(CNOCCF)c4C[C@H]3C[C@@H]12 [DW, (4S,4aS,5aR,12aS)-4-Dimethylamino-7-[(2-fluoro-ethoxyamino)-methyl]-3,10,12,12a-tetrahydroxy-1,11-dioxo-1,4,4a,5,5a,6,11,12a-octahydro-naphthacene-2-carboxylic acid amide]	4 to 8 (≈ 7.91 to 15.8 µM)	< 4	> 8	< 4	< 4	< 4	< 4	> 75	> 75	–	0.48	–	–	–	–	–	–	–	–	–
CN(C)[C@@H]1C(O)=C(C(N)=O)C(=O)[C@@]2(O)C(O)=C3C(=O)c4c(O)ccc(CNOCC(F)F)c4C[C@H]3C[C@@H]12 [DX]	< 4	4 to 8 (≈ 7.64 to 15.3 µM)	4 to 8 (≈ 7.64 to 15.3 µM)	< 4	< 4	< 4	< 4	< 35	35 to 75 (≈ 66.9 to 143 µM)	–	0.58	–	–	–	–	–	–	–	–	–
CN(C)[C@@H]1C(O)=C(C(N)=O)C(=O)[C@@]2(O)C(O)=C3C(=O)c4c(O)ccc(CNOCC(F)(F)F)c4C[C@H]3C[C@@H]12 [DZ]	< 4	4 to 8 (≈ 7.39 to 14.8 µM)	> 8	< 4	< 4	< 4	< 4	< 35	< 35	–	1.11	–	–	–	–	–	–	–	–	–
CON(C)Cc1ccc(O)c2c1C[C@H]1C[C@H]3[C@@H](N(C)C)C(O)=C(C(N)=O)C(=O)[C@@]3(O)C(O)=C1C2=O [Y]	–	> 8	> 8	< 4	< 4	< 4	4 to 8 (≈ 8.2 to 16.4 µM)	> 75	> 75	–	–	> 8	–	–	–	–	–	–	–	–
CCNN(CC)Cc1ccc(O)c2c1C[C@H]1C[C@H]3[C@H](N(C)C)C(O)=C(C(N)=O)C(=O)[C@@]3(O)C(O)=C1C2=O [Z, (4S,4aS,5aR,12aS)-7-(N,N″-Diethyl-hydrazinomethyl)-4-dimethylamino-3,10,12,12a-tetrahydroxy-1,11-dioxo-1,4,4a,5,5a,6,11,12a-octahydro-naphthacene-2-carboxylic acid amide]	> 8	4 to 8 (≈ 7.77 to 15.5 µM)	4 to 8 (≈ 7.77 to 15.5 µM)	< 4	< 4	< 4	< 4	> 75	> 75	–	–	–	–	–	–	–	–	–	–	–
(4S,4aS,5aR,12aS)-4-Dimethylamino-3,12,12a-trihydroxy-1,11-dioxo-7-pyrazin-2-yl-1,4,4a,5,5a,6,11,12a-octahydro-naphthacene-2-carboxylic acid amide [W]	–	–	–	–	–	–	–	–	–	–	–	–	* (weak or no antibacterial activity (greater than about 8 μg/mL))	* (weak or no antibacterial activity (greater than about 8 μg/mL))	* (weak or no antibacterial activity (greater than about 8 μg/mL))	*** (Good antibacterial activity (e.g., less than about 4 μg/mL))	*** (Good antibacterial activity (e.g., less than about 4 μg/mL))	*** (Good antibacterial activity (e.g., less than about 4 μg/mL))	*** (Good antibacterial activity (e.g., less than about 4 μg/mL))	1.08
